The results in this text go back to paper PMC6355318 (Bioorganic & Medicinal Chemistry Letters, 2019).

Converted amounts (≈) assume the structure as drawn.

A word on the kinetic solubility: it is the concentration staying in solution when a stock, usually in DMSO, is diluted into the medium.

The subject of data set [1] is P. falciparum. The experiment in a line: blood stage hypoxanthine incorporation (HXI) cell-based assay. The note with it: Plasmodium falciparum, read-out: Pf HXI pEC50 (converted). An excerpt: [23] For full details on both biochemical assay and anti-malarial hypoxanthine incorporation (cell based) assay procedures, see reference 14.
Data set [2] has as its target PfPKG (Plasmodium falciparum, UniProt Q8I719). The experiment in a line: biochemical. The data set is classed as biochemical. The note with it: for IC50: recombinant kinase, read-out: PfPKG pIC50 (converted); for LLE: LLE (pIC50 - mLogD).
The conditions of data set [3]: % remaining after 30 mins, mouse liver microsomes, 1 μM. Background: Microsomes from liver hold many membrane-bound enzymes, among them those of drug oxidation.
Method: Microsomal turnover data was obtained using mouse liver microsomes (MLM) obtained from BD Biosciences. The compounds are pre-incubated at 37 °C for 5 minutes with the microsomes and the reaction was initiated by adding an equal volume of NADPH generating solution, also obtained from BD Biosciences. The final compound concentration in the incubation is 1 μM, and the microsomal protein concentration is 0.2 mg/mL. A sample is taken at t=0 and quenched with 2x volume of ice-cold methanol containing an internal standard reference compound (carbamazepine). The reaction is agitated at 37 °C for 30 minutes, when a further sample was taken and quenched in an identical fashion. The samples were centrifuged at 10000 rpm for 10 minutes and the supernatant taken for analysis in triplicate by LC-MS/MS (Agilent Technologies G6410 series, triple quadrupole with MM-ESI ion source) using optimised multiple reaction monitoring (MRM) scans and a standard column gradient on an Acquity UPLC BEH C8 1.7μm column, running acetonitrile and water with 0.05% acetic acid as the mobile phase. The % turnover is obtained by calculating the percentage difference of the peak areas, normalised to the internal standard, at t=0 and t=30. Verapamil is used as the standard compound for this assay.
Data set [4] can be described thus: Measured logD (shake flask). It counts as physicochemical. The note with it: octanol/PBS. The protocol: LogD measurements were carried out using the shake flask method. […] The ratios of areas of the peaks were used to calculate the LogD in accordance with the equation:
LogD = Log10(Area-TL/Area BL)

For data set [5] the following is noted: passive permeability, 5 hours at room temperature.
The nature of data set [6]: Kinetic solubility. It counts as physicochemical. The note with it: PBS pH 7.4 with 2% DMSO, PBS pH7.4, 98:2 PBS:DMSO, 90 minutes, target 200 μM.
Method: Each compound was run in triplicate on the same plate with two standard compounds, verapamil and ketoconazole, included per plate. The filtration plate was shaken at 500 rpm for 90 minutes and then filtered under vacuum. The filtrate was sampled and diluted with a DMSO:PBS mixture in a flat bottomed UV plate to give a solution with a composition of PBS:DMSO 80:20. […] The UV absorbance for these solutions was read across 230-400 nm at 1 nm intervals using a TECAN Safire II plate reader and a suitable UV wavelength chosen around the UV maximum of each compound.

Sequence of PfPKG (Q8I719 whole entry): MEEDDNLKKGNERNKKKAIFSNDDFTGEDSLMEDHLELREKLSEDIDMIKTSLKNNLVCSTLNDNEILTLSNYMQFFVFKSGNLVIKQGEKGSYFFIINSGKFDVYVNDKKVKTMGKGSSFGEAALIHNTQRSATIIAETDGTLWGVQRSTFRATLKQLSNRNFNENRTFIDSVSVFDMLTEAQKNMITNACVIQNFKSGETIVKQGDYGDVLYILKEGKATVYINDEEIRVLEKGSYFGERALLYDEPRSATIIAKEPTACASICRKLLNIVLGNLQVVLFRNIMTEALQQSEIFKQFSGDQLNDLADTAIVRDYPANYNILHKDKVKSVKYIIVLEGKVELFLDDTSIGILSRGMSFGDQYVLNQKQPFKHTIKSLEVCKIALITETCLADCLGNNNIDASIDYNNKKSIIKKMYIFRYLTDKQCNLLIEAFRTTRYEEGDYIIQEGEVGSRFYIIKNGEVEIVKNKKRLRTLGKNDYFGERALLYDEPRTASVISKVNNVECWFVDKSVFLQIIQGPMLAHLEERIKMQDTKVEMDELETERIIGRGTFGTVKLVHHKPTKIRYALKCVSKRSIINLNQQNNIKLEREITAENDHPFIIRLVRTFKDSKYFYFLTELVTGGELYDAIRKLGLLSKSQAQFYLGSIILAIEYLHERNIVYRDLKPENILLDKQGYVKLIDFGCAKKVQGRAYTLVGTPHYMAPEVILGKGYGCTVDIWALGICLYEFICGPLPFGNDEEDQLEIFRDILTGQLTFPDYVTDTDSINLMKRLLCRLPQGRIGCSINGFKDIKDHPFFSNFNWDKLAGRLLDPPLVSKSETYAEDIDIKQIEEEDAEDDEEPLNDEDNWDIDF

Consider `CN(C)Cc1ccn2c(-c3ccnc(N)n3)c(-c3ccc(F)cc3)nc2c1` [Compound 2, reference compound], for which, in data set [1], the EC50 was 363 nM. Also, in data set [2], the IC50 is 2 nM.
Take `CN(C)Cc1ccn2c(-c3cc(N)ncn3)c(-c3ccc(F)cc3)nc2c1` [Compound 5]: in data set [2], the LLE was found to be 4.7 and the IC50 is 87.1 nM.
For `CN(C)Cc1ccn2c(-c3ccncn3)c(-c3ccc(F)cc3)nc2c1` [Compound 7, reference compound], in that order: 5.9 and 12 nM.
As to `CN(C)Cc1ccn2c(-c3ccncc3)c(-c3ccc(F)cc3)nc2c1` [Compound 8], in data set [2], the LLE is on record as 4.2 and the IC50 is 77.6 nM. Moreover, the “fold less biochemically active” value in data set [2] (compared to 2) is about 40 fold.
Regarding `CN(C)Cc1ccn2c(-c3cn[nH]c3)c(-c3ccc(F)cc3)nc2c1` [Compound 9], in data set [2], the LLE amounted to 5.1 and the IC50 is 120 nM.
Taken in the same sequence, the figures for `CN(C)Cc1ccn2c(-c3ccnc(N)c3)c(-c3ccc(F)cc3)nc2c1` [Compound 10] were 5.3 and 52.5 nM.
Consider `CN(C)Cc1ccn2c(-c3ccnc(Nc4ccc(N5CCNCC5)cc4)c3)c(-c3ccc(F)cc3)nc2c1` [Compound 11], for which, in data set [2], the IC50 was 257 nM.
`CN(C)CCCNc1nccc(-c2c(-c3ccc(F)cc3)nc3ccccn23)n1` [Compound 14]: the MLM % rem in data set [3] is listed as 62%. In data set [4], this molecule gave a mLogD of 1.8. Further, in data set [5], the PAMPA was 8.2 ×10⁻⁶ cm/s. Besides, the IC50 in data set [2] is 851 nM.
For `Fc1ccc(-c2nc3ccccn3c2-c2ccnc(NC3CCOCC3)n2)cc1` [Compound 15], in that order: 84%, 1.8, 14.5 ×10⁻⁶ cm/s and 132 nM.
With `CN1CCN(c2ccc(Nc3nccc(-c4c(-c5ccc(F)cc5)nc5ccccn45)n3)cc2)CC1` [Compound 16], in data set [3], the MLM % rem came to 65%. The same molecule registered a kinetic solubility at 1.5 h, 200 µM in data set [6] of 9 µM (≈ 4.32 µg/mL). This molecule had a mLogD in data set [4] of 4.0. In addition, the EC50 in data set [1] was 115 nM. The PAMPA in data set [5] amounted to 0 ×10⁻⁶ cm/s.
For `CN1CCC(c2ccc(Nc3nccc(-c4c(-c5ccc(F)cc5)nc5ccccn45)n3)cc2)CC1` [Compound 17], in data set [3], the MLM % rem was determined as 55%. In data set [4], this molecule registered a mLogD of 3.3. Moreover, the EC50 in data set [1] was 158 nM. The molecule further registered a PAMPA in data set [5] of 0 ×10⁻⁶ cm/s. In addition, in data set [2], the IC50 is 5.01 nM.
In the case of `CN1CCC(n2cc(Nc3nccc(-c4c(-c5ccc(F)cc5)nc5ccccn45)n3)cn2)CC1` [Compound 18], in data set [3], the MLM % rem is recorded as 37%. The kinetic solubility at 1.5 h, 200 µM in data set [6] is 237 µM (≈ 111 µg/mL). Besides, the mLogD in data set [4] turned out to be 2.7. In addition, the EC50 in data set [1] is 575 nM. In data set [5], this molecule returned a PAMPA of 12.4 ×10⁻⁶ cm/s. Moreover, in data set [2], the IC50 is 100 nM.
As for `CN(C)Cc1cc2nc(-c3ccc(F)cc3)c(-c3ccnc(N)n3)n2cn1` [Compound 19], the MLM % rem in data set [3] is listed as 59%. In data set [4], the mLogD was found to be 2.1. The EC50 in data set [1] is 3720 nM. Besides, the PAMPA in data set [5] stood at 5.8 ×10⁻⁶ cm/s. Also, the IC50 in data set [2] is 55 nM.
For `CN(C)Cc1ccn2c(-c3ccnc(N)n3)c(-c3ccc(F)cc3)nc2n1` [Compound 20], in that order: 67%, 2.1, 4070 nM, 11.8 ×10⁻⁶ cm/s and 81.3 nM.
Regarding `CN(C)Cc1ccc2c(c1)nc(-c1ccc(F)cc1)n2-c1ccnc(N)n1` [Compound 23], the MLM % rem in data set [3] worked out at 78%. In addition, the mLogD in data set [4] was 1.2. In data set [5], this molecule yielded a PAMPA of 3.2 ×10⁻⁶ cm/s. Moreover, the IC50 in data set [2] is 30.9 nM.
In turn, `CN(C)CCNc1ccc2nc(-c3ccc(F)cc3)c(-c3ccnc(N)n3)n2n1` [Compound 26] came in with an MLM % rem in data set [3] of 68%. The mLogD in data set [4] was found to be 1.6. The molecule further showed a PAMPA in data set [5] of 1 ×10⁻⁶ cm/s. For the same molecule, the IC50 in data set [2] is 407 nM.
In turn, `CN(C)Cc1ccc2c(-c3ccnc(N)n3)c(-c3ccc(F)cc3)nn2c1` [Compound 29] had an MLM % rem in data set [3] of 22%. This molecule had a mLogD in data set [4] of 2.5. Moreover, the EC50 in data set [1] was 513 nM. Further, the PAMPA in data set [5] was determined as 18.5 ×10⁻⁶ cm/s. Also, in data set [2], the IC50 was 4.07 nM.
